Results published in patent US9494589B2, “Method of determining the probability of a therapeutic response in cancer chemotherapy with cardiac glycoside” (priority 2007, dated 2016).

Assays:
BRO cells = test: In vitro cytotoxicity, MTT assay of cell proliferation; type: cell-based, human; conditions: Melanoma, 72 hr
Excerpt: (§1) As defined in the Tables above, an “in vitro response” denotes the extent to which proliferation of a given tumor cell line is inhibited with a stated concentration of drug (cardiac glycoside) over a defined period of time. A designation of “no response” denotes less than 50% growth inhibition at any of the multiple drug concentrations tested. That is, no concentration could be identified as an IC50 value (that concentration producing inhibition of cell growth by 50% over the stated period of time of the experiment). Accordingly, were this tumor cell line growing in a mammal such as a human, it is probable that the drug would be ineffective in producing significant inhibition of tumor growth. The designation of “partial response” in the Table above denotes the capacity of a given cardiac glycoside such as oleandrin or bufalin to inhibit cell proliferation by more than 50% but less than 75% relative to nontreated tumor cell growth. Accordingly, this would equate to a partial or less than complete therapeutic response of the tumor to the cardiac glycoside if this product were used to treat tumor growth in a mammal such as a human. […] Accordingly, it is probable that total inhibition of tumor growth (or a complete therapeutic response, in a mammal might be achieved.
(§2) Cells were grown in their relevant media as indicated in the table below at a density of 1×10^4 cells/well. After a 24 hr incubation period, cells were treated with various concentrations of oleandrin (1 to 500 nM). After an additional 72 hr, inhibition of cellular proliferation was assessed by MTT assay (23). Absorbance was read at a wavelength of 570 nm and a reference wavelength of 650 nm using a V-Max Micro-plate Reader by Molecular Devices, Inc. (Sunnyvale, Calif.). The relative extent of inhibition of cell proliferation due to the presence of a given concentration of oleander extract or other plant extract containing a cardiac glycoside compound(s) can be derived by comparing treated to non-treated cell numbers after a set period of time allowing for cell growth (e.g. 24-72 hr).

BXPC3 cells = test: as above; type: cell-based, human; conditions: BXPC3, Pancreas; 72 hr
Excerpt: as §1, §2

CACO2 cells = test: as above; type: cell-based, human; conditions: CACO2, Colon, 72 hr
Excerpt: as §1, §2

DOD-1 cells = test: as above; type: cell-based, human; conditions: DOD-1, Colon, 72 hr
Excerpt: as §1, §2

HCT116 cells = test: as above; type: cell-based, human; conditions: HCT116, Colon, 72 hr
Excerpt: as §1, §2

HT29 cells = test: as above; type: cell-based, human; conditions: HT29, Colon, 72 hr
Excerpt: as §1, §2

LS174T cells = test: as above; type: cell-based, human; conditions: Colon, 72 hr
Excerpt: as §1, §2

MCF7 cells = test: as above; type: cell-based, human; conditions: MCF7, Breast; 72 hr
Excerpt: as §1, §2

MDA231 cells = test: as above; type: cell-based, human; conditions: MDA231, Breast; 72 hr
Excerpt: as §1, §2

MiaPaca cells = test: as above; type: cell-based, human; conditions: 72 hr; for IC50: Homo sapiens, MIA PaCa-2, Pancreas; for In vitro response: Pancreas
Excerpt: as §1, §2

PANC1 cells = test: as above; type: cell-based, human; conditions: PANC1, Pancreas, 72 hr; for IC50: Homo sapiens, PANC-1
Excerpt: as §1, §2

SUM149 cells = test: as above; type: cell-based, human; conditions: SUM149, Breast, 72 hr
Excerpt: as §1, §2

Human melanoma BRO cells = test: Cytotoxicity comparison of oleandrin and extracts, crystal violet staining; type: cell-based; conditions: oleandrin equivalent concentrations, 72 hr
Procedure: (§3) The cytotoxic potential of both extracts are compared directly with that of oleandrin. The samples contained the same amounts of oleandrin even though their concentration of oleandrin differed due to the concentration of oleandrin present in the extracts.
(§4) BRO (human melanoma) and Panc-1 (human pancreatic cancer) cells (8×10^3/well) were plated in a 96 well plate and allowed to attach overnight. Drug or extracts were then added to the cells. After 72 hr of incubation, relative cell proliferation (relative to control untreated cells) was assessed by crystal violet staining method.

[1] = tested on: Human pancreatic cancer PANC-1 cells; test: as above; type: cell-based; conditions: oleandrin equivalent concentrations, 72 hr
Procedure: as §3, §4

[2] = tested on: non-transfected Panc-1 cells; test: Sensitivity to oleandrin of non-transfected Panc-1 cells; type: cell-based; conditions: Homo sapiens
Excerpt: (§5) Still further proof of the relative importance of the α3/α1 isoform ratio toward predictability of a therapeutic response by a target malignant tissue to treatment with a cardiac glycoside was established by transfection of Panc-1 cells with α1 subunit isoform. The Na, K-ATPase α1 subunit isoform was transfected to Panc-1 cells, which normally lack α1 expression. The control sample in FIG. 5A is for non-transfected Panc-1 cells, and the α1cDNA sample in FIG. 5A is for Panc-1 cells transfected with the α1 subunit isoform. As a result, the ratio of α3 to α1 was reduced in the transfected Panc-1 cells (FIG. 5B). The sensitivity of the transfected Panc-1 cells to oleandrin treatment was then evaluated.

[3] = tested on: α1 transfected Panc-1 cells; test: Sensitivity to oleandrin of Panc-1 cells transfected with α1 subunit isoform; type: cell-based; conditions: Homo sapiens
Excerpt: as §5

[4] = tested on: Panc-1 cells transfected with α3 siRNA; test: Sensitivity to oleandrin of Panc-1 cells transfected with α3 siRNA, Calcein AM viability; type: cell-based, human; conditions: α3 expression reduced by siRNA; 10 to 50 nM, 48 hr
Excerpt: Further proof of the relative importance of the α3/α1 isoform ratio toward predictability of a therapeutic response by a target malignant tissue to treatment with a cardiac glycoside was established as follows. Artificial down-regulation of the expression of α3 isoform in human pancreatic cancer cells, i.e. manipulation of isoform content of subunits of Na, K-ATPase, was achieved by transfection of cells with siRNA (silencing RNA) specific to the α3 isoform. […] Quantitation of the decreased expression of α3 by Western blot is detailed in FIG. 4B.
Panc-1 cells were plated in 6 and 48 well plates and allowed to attach overnight. Transient transfection of α3 siRNA molecules was carried out using siPORT™ Amine Transfection Agent (Ambion Austin, Tex.) and 0.4 μM α3 silencing RNA (Santa Cruz Biotech.) following the manufacture's instructions. Twenty-four hr after transfection, cells were treated with 10 to 50 nM oleandrin for 48 hr. Protein was collected from the 6 well plates for Western blot analysis and cell viability assessment was carried out by Calcien AM staining.

human tumor cell lines = test: Mean IC50 of growth inhibition in groups of tumor cell lines by α3/α1 isoform ratio; type: cell-based; conditions: ten cell lines α3/α1 >1.0 versus six cell lines α3/α1 <1.0
Procedure: FIG. 3A depicts a plot of concentration (nM) of oleandrin (provided as oleandrin) versus the percentage of growth of control. […] Exemplary cell lines for the groups are: Group I-MDA231, BXPC3, MCF-7; Group II-SUM149, BRO; Group III-Panc-1, CaCo2. The response data are as predicted by the isoform ratio data. In order to establish the robustness of the method and kit of the invention, a statistical analysis of cellular response data was conducted. The data in FIG. 3B depict the relative ability of oleandrin-containing composition to inhibit human tumor cell proliferation in vitro. The data are depicted as Mean±SD. Oleandrin mediated growth inhibition was examined in ten cell lines (representing a variety of solid tumors) in which the relative subunit content α3/α1 isoform ratio >1.0 and six cell lines in which the α3/α1 isoform ratio <1.0.
Student's t test was used to determine the statistical differences between various experimental groups; a value of P<0.05 was considered to be significant.

[5] = tested on: rodent (mouse and rat) tumor cell lines; test: In vitro proliferation of rodent tumor cell lines; type: cell-based; conditions: rodent tumor cell lines lacking α3 subunit isoform
Excerpt: Rodent (rat or mouse) cancer cells can be used as a negative control sample. FIG. 1A depicts a film developed against the gel of a Western blot analysis of rodent tumor cell lines. […] Human tumor cell lines are generally more sensitive to treatment with cardiac glycoside-containing composition than are murine tumor cells (FIG. 1B). The inventors believe this difference in therapeutic responsiveness is due to the differences in the ratio of α3 to α1 isoforms in the two different species, as noted above.

Q: Which results are given for `CO[C@H]1C[C@H](O[C@H]2CC[C@@]3(C)[C@H](CC[C@@H]4[C@@H]3CC[C@]3(C)[C@@H](C5=CC(=O)OC5)[C@@H](OC(C)=O)C[C@]43O)C2)O[C@@H](C)[C@@H]1O` [oleandrin]?
A: IC50 (BRO cells; Homo sapiens): 8.2 nM; In vitro response (BRO cells): Complete*** (Denotes greater than 75% growth inhibition achieved at 62 nM); In vitro response (BXPC3 cells): No* (Denotes less than 50% growth inhibition achieved at concentrations up to 125 nM); In vitro response (CACO2 cells): Complete*** (Denotes greater than 75% growth inhibition achieved at 62 nM); IC50 (CACO2 cells; Homo sapiens, Caco-2): 9.4 nM; In vitro response (DOD-1 cells): Complete*** (Denotes greater than 75% growth inhibition achieved at 62 nM); IC50 (DOD-1 cells; Homo sapiens): 19.6 nM; In vitro response (HCT116 cells): Partial** (Denotes greater than 50% but less than 75% growth inhibition achieved at 62 nM); IC50 (HCT116 cells; Homo sapiens, HCT-116): 36.2 nM; In vitro response (HT29 cells): Complete*** (Denotes greater than 75% growth inhibition achieved at 62 nM); IC50 (HT29 cells; Homo sapiens, HT-29): 15.6 nM; In vitro response (LS174T cells): Complete*** (Denotes greater than 75% growth inhibition achieved at 62 nM); IC50 (LS174T cells; Homo sapiens): 20.7 nM; In vitro response (MCF7 cells): No* (Denotes less than 50% growth inhibition achieved at concentrations up to 125 nM); In vitro response (MDA231 cells): No* (Denotes less than 50% growth inhibition achieved at concentrations up to 125 nM); IC50 (MiaPaca cells): 14.2 nM; In vitro response (MiaPaca cells): Complete*** (Denotes greater than 75% growth inhibition achieved at 62 nM); IC50 (PANC1 cells): 6.1 nM; In vitro response (PANC1 cells): Complete*** (Denotes greater than 75% growth inhibition achieved at 62 nM); IC50 (SUM149 cells; Homo sapiens): 22.5 nM; In vitro response (SUM149 cells): Partial** (Denotes greater than 50% but less than 75% growth inhibition achieved at 62 nM); IC50 (Human melanoma BRO cells): 17 nM; IC50 [1]: 10 nM; IC50 [2]: 4.1 nM; IC50 [3]: > 50 nM; Sensitivity of transfected cells to treatment [4]: lose their sensitivity; Difference in mean IC50 between cell line groups (human tumor cell lines): 8 fold; Inhibition of proliferation in vitro [5]: not significantly inhibited

Q: How did the In vitro response (BXPC3 cells) turn out when `C[C@]12CC[C@H](O)C[C@H]1CC[C@@H]1[C@@H]2CC[C@]2(C)[C@@H](c3ccc(=O)oc3)CC[C@]12O` [bufalin] was run?
A: No* (Denotes less than 50% growth inhibition achieved at concentrations up to 125 nM)

Q: What about the IC50 (MiaPaca cells) of the same compound?
A: 2.1 nM

Q: What about the In vitro response (MiaPaca cells) of the same compound?
A: Complete*** (Denotes greater than 75% growth inhibition achieved at 62 nM)

Q: And the IC50 (PANC1 cells)?
A: 1.2 nM

Q: What about the In vitro response (PANC1 cells) of the same compound?
A: Complete*** (Denotes greater than 75% growth inhibition achieved at 62 nM)

Q: What about the “Inhibition of proliferation in vitro” value [5] of the same compound?
A: not significantly inhibited

Q: With `C[C@@H]1O[C@@H](O[C@H]2C[C@@H](O)[C@]3(CO)[C@H]4[C@H](O)C[C@]5(C)[C@@H](C6=CC(=O)OC6)CC[C@]5(O)[C@@H]4CC[C@]3(O)C2)[C@H](O)[C@H](O)[C@H]1O` [ouabain] as the compound, how does the “Inhibition of proliferation in vitro” value [5] read?
A: not significantly inhibited
